US8778888B2, “Cystine knot peptides binding to alpha IIb beta 3 integrins and methods of use” (The Board of Trustees of the Leland Stanford Junior …, priority 2009, dated 2014)

Biological target: T1, αIIbβ3 integrin (K562-αIIbβ3 cells) (Homo sapiens, UniProt P05106+P08514)
T1 construct: expressed in transfected cells; host or cells: K562 leukemia cells (from S. Blystone)
Assay: Cell binding assay on K562-αIIbβ3 cells (flow cytometry)
Conditions: K562-αIIbβ3 versus K562-αvβ3 cells
Method: K562 cells stably expressing αIIbβ3, αvβ3, or αvβ5 were obtained from S. Blystone and maintained in IMDM media (Gibco) containing 10% FBS and 1.0 mg/mL geneticin. For binding assays, 10^5 cells were suspended in IBB, and varying concentrations of AgRP peptides were added. After 3 hour incubation at 4° C., the cells were centrifuged, aspirated, and resuspended in ice-cold BPBS containing a 1:20 dilution of fluorescein-conjugated goat anti-His antibody (Bethyl) for […]. The cells were then centrifuged, aspirated, and stored as pellets on ice until analysis by flow cytometry using a BD FACS Caliber instrument Becton Dickinson. Binding data was analyzed with FlowJo (Treestar, Inc.) and data was fit to sigmoidal plots using Kaleidagraph (Synergy Software) to calculate equilibrium dissociation constants. Experiments were performed at least 3 times and data are presented as average values with standard deviations.
To determine the integrin binding affinities and specificities of the engineered AgRP peptides, direct binding assays were performed using K562 leukemia cells that have been transfected to stably express different integrin receptors See J. Cell Biol. 127(4) (1994). Cells were incubated in the presence of varying concentrations of AgRP peptides at 4° C., to minimize receptor internalization, followed by staining with a fluorescein-conjugated anti-hexahistidine antibody and analysis by flow cytometry. Equilibrium dissociation constants (KD values) were determined by plotting AgRP peptide concentration (log scale) versus normalized mean fluorescence intensity, then fitting the data to a sigmoidal curve.

T1 sequence (P08514 32-887 limits assumed): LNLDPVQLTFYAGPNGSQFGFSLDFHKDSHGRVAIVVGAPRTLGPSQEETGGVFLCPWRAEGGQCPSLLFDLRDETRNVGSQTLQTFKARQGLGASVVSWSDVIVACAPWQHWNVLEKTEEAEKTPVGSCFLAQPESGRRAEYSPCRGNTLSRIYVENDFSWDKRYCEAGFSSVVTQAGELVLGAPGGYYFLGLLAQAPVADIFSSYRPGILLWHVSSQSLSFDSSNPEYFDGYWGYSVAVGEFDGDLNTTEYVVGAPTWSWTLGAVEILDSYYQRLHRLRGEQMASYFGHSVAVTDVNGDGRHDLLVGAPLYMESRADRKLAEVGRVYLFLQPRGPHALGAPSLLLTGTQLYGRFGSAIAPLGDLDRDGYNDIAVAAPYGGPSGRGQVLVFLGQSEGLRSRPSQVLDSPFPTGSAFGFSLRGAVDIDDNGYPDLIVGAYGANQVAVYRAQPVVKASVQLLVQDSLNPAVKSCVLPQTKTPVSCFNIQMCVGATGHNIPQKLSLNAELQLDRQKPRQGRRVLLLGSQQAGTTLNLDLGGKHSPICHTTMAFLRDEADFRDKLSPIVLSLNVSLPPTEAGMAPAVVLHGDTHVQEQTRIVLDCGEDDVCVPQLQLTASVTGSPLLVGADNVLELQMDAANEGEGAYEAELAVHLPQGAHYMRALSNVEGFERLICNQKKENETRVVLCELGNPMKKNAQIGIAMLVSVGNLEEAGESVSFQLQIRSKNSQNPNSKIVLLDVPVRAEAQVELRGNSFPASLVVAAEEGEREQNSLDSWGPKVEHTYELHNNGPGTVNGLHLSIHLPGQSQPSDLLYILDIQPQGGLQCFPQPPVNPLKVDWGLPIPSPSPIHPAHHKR
T1 sequence (P08514 891-1039 partner limits assumed): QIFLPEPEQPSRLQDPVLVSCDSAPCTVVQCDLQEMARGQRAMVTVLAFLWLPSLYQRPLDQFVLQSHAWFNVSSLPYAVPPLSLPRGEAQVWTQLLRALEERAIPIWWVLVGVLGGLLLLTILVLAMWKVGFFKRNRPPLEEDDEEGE
T1 sequence (P05106 27-788): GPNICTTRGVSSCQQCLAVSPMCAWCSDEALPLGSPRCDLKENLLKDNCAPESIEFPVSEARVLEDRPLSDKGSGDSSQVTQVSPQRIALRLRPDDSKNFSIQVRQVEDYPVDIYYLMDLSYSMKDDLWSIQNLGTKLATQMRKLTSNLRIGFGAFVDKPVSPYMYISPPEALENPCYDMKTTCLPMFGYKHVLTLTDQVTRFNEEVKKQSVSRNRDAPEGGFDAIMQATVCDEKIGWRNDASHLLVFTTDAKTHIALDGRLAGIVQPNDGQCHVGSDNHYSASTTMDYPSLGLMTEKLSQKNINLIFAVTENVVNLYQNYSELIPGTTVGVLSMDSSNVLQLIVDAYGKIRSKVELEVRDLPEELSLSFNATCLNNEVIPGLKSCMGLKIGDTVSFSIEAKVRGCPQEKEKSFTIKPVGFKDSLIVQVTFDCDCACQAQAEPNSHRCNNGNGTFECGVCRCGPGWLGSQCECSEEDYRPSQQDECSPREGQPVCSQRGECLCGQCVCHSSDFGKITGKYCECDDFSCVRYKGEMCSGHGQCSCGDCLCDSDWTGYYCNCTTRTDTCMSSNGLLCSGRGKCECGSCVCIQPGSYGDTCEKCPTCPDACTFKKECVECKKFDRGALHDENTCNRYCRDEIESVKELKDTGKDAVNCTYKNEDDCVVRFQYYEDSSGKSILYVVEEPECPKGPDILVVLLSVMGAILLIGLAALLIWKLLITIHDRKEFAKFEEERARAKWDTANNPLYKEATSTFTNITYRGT

Structure (SMILES)	integrin binding specificity on K562 cell lines
CC(C)C[C@@H]1NC(=O)[C@@H]2CSSC[C@@H]3NC(=O)[C@H]([C@@H](C)O)NC(=O)[C@H](C)NC(=O)[C@H](C)NC(=O)[C@@H]4CCCN4C(=O)[C@H](CC(=O)O)NC(=O)[C@H](CSSC[C@H](NC(=O)CNC(=O)[C@H](CCCNC(=N)N)NC(=O)[C@@H]4CCCN4C(=O)[C@H](CCCCN)NC(=O)[C@H](CC(=O)O)NC(=O)[C@H](CC(=O)O)NC(=O)[C@H](CC(=O)O)NC(=O)[C@H](CC(=O)O)NC(=O)[C@H](CCCCN)NC(=O)[C@H](Cc4ccc(O)cc4)NC(=O)[C@H](CC(=O)O)NC(=O)[C@@H](NC(=O)[C@@H](N)Cc4ccc(O)cc4)C(C)C)C(=O)N[C@@H](C(C)C)C(=O)N[C@@H](CCCNC(=N)N)C(=O)N[C@@H](CC(C)C)C(=O)N[C@@H](Cc4c[nH]cn4)C(=O)N[C@@H](CCC(=O)O)C(=O)N[C@@H](CO)C(=O)N2)NC(=O)[C@H](CSSC[C@@H](C(=O)N[C@@H](CCCNC(=N)N)C(=O)N[C@H](C(=O)N[C@@H](CCCNC(=N)N)C(=O)N[C@@H](Cc2c[nH]cn2)C(=O)N[C@@H](Cc2c[nH]cn2)C(=O)N[C@@H](Cc2c[nH]cn2)C(=O)N[C@@H](Cc2c[nH]cn2)C(=O)N[C@@H](Cc2c[nH]cn2)C(=O)N[C@@H](Cc2c[nH]cn2)C(=O)O)[C@@H](C)O)NC(=O)[C@H](Cc2ccc(O)cc2)NC(=O)[C@@H]2CSSC[C@H](NC(=O)[C@H](Cc4ccc(O)cc4)NC3=O)C(=O)N[C@@H](CC(N)=O)C(=O)N[C@@H](CCCCN)C(=O)N[C@@H](CCCNC(=N)N)C(=O)NCC(=O)N[C@@H](CC(=O)O)C(=O)N[C@@H](Cc3c[nH]c4ccccc34)C(=O)N[C@@H](CCCNC(=N)N)C(=O)N[C@@H](CO)C(=O)N[C@@H](CCCCN)C(=O)N2)NC(=O)[C@@H]2CCCN2C(=O)[C@H](C(C)C)NC(=O)[C@H](CCC(N)=O)NC(=O)[C@H](CCC(N)=O)NC(=O)CNC1=O [Clone 2bJ]	bound K562-αIIbβ3 cells only
CC(C)C[C@@H]1NC(=O)[C@@H]2CSSC[C@@H]3NC(=O)[C@H]([C@@H](C)O)NC(=O)[C@H](C)NC(=O)[C@H](C)NC(=O)[C@@H]4CCCN4C(=O)[C@H](CC(=O)O)NC(=O)[C@H](CSSC[C@H](NC(=O)CNC(=O)[C@H](CCCNC(=N)N)NC(=O)[C@@H]4CCCN4C(=O)[C@H](CCCCN)NC(=O)[C@H](CC(=O)O)NC(=O)[C@H](CC(=O)O)NC(=O)[C@H](CC(=O)O)NC(=O)[C@H](CC(=O)O)NC(=O)[C@H](CCCCN)NC(=O)[C@H](Cc4ccc(O)cc4)NC(=O)[C@H](CC(=O)O)NC(=O)[C@@H](NC(=O)[C@@H](N)Cc4ccc(O)cc4)C(C)C)C(=O)N[C@@H](C(C)C)C(=O)N[C@@H](CCCNC(=N)N)C(=O)N[C@@H](CC(C)C)C(=O)N[C@@H](Cc4c[nH]cn4)C(=O)N[C@@H](CCC(=O)O)C(=O)N[C@@H](CO)C(=O)N2)NC(=O)[C@H](CSSC[C@@H](C(=O)N[C@@H](CCCNC(=N)N)C(=O)N[C@H](C(=O)N[C@@H](CCCNC(=N)N)C(=O)N[C@@H](Cc2c[nH]cn2)C(=O)N[C@@H](Cc2c[nH]cn2)C(=O)N[C@@H](Cc2c[nH]cn2)C(=O)N[C@@H](Cc2c[nH]cn2)C(=O)N[C@@H](Cc2c[nH]cn2)C(=O)N[C@@H](Cc2c[nH]cn2)C(=O)O)[C@@H](C)O)NC(=O)[C@H](Cc2ccc(O)cc2)NC(=O)[C@@H]2CSSC[C@H](NC(=O)[C@H](Cc4ccc(O)cc4)NC3=O)C(=O)N[C@@H](CC(C)C)C(=O)N[C@@H](CCCCN)C(=O)N[C@@H](CCCNC(=N)N)C(=O)NCC(=O)N[C@@H](CC(=O)O)C(=O)N[C@@H](Cc3c[nH]c4ccccc34)C(=O)N[C@@H](CCCCN)C(=O)NCC(=O)N[C@@H](CCCCN)C(=O)N2)NC(=O)[C@@H]2CCCN2C(=O)[C@H](C(C)C)NC(=O)[C@H](CCC(N)=O)NC(=O)[C@H](CCC(N)=O)NC(=O)CNC1=O [Clone 2bA]	bound K562-αIIbβ3 cells only
